Experimental data published in PMC12261321, “Inhibitors of the Bacterioferritin Ferredoxin Complex Dysregulate Iron Homeostasis and Kill and Biofilm-Embedded Cells” (ACS Infectious Diseases, 2025).
Values after ≈ are worked out from the molar mass of the structure shown.

How the values were obtained:
Type in all cases: cell-based
[1] = tested on: P. aeruginosa PAO1; experiment: Half maximal inhibitory concentration (IC50), planktonic growth (CFU/mL); settings: M63 media, 18 h
Description: Measurement of Half Maximal Inhibitory Concentration (IC50). IC50 values were determined as reported earlier13 with some modifications. Compound stock solutions in DMSO (100 mM and 10 mM) were prepared from powd er. To prep are the cell susp ensions utilized in the measu rements, starter cultures o f P. aeru ginosa wer e diluted to an optical density at 600 nm (OD600) = 0.005 in fresh LB media (5 mL) and then cultured at 37°C and 220 rpm for 4 h prior to diluting to an OD600 = 0.0001 in M63. A small volume of compound stock solution w as further diluted in DMSO to 30 µL and then diluted in M63 cell suspension to a final volume of 2.0 mL. The resultant solution was placed in a well of a 96-well plate and then serially 2-fold diluted in M63 cell suspension to produce 6 distinct com pound concent rations, each with 1.5% DMSO. Th e plate was co ver ed and incubated for 18 h at 35 °C in a Synergy H1 plate reader (Biotek). The resultant cell cultures were serially diluted in PBS and then plated on PI Agar plates (PIA; BD biosciences) for counting viable cells (CFU/mL). The % growth was calculated from the ratio CFU/mL(t reat ed )/CFU/mL(untreated control). To calculate the IC50 values, the % growth was plotted as a function of compound concentration expressed as log[compound] ( µM), and fitted to equation S1 describing the sigmoid- shaped response pattern, 14 where b is the slope factor, max is the upper asymptote (plateau), and min is the lower asymptote. IC 50 values are the average and standard deviation from three independent experiments , each conducted with thr ee techni cal replicates.

[2] = tested on: A. baumannii ATCC 19606; experiment: MIC, broth microdilution in M63 media
Description: (§1) Measurement of Minimum Inhibitory Concentrations (MIC). The MIC of compounds and select ed antibiotics against three strains of A. baumannii (5075, ATCC 17988, and ATCC 19606) were determined via the broth microdilution method according to Clinical and Laboratory Standard Instit ute (CLSI) guidelines,15 but culturing […]
(§2) To establish a 2-fold dilution series of compound, 985 μ L of diluted cells was mixed with 15 μ L of compound […]
(§3) dissolved in DMSO, such that the resultant solution had the highest concentration of compound or antibiotic tested and 1.5% DMSO. To carry out the serial dilution from the highest compound concentration, a 150 μ L solution of higher concentration compound or antibiotic was mixed with 150 μ L of cell suspension containing 1.5% DMSO in the wells of a 96 well plate.
(§4) Th e 96 well plate was in cubated for 20 hat 35 °C with continuous orbital shaking (205 cpm) in an Epoch2 microplate reader (BioTek), monitoring the growth by […]
(§5) following the OD600. […]
(§6) FFFFFF = MMMMMMAA iiii ccllccbbiiiicccciilliiMMMMMMAA+ MMMMMMBB iiii ccllccbbiiiicccciilliiMMMMMMBB S2 Time Kill Assays. Time-kill assays were performed with A. baumannii 507 5 by the broth macro- dilution method in M63- medium containing 1.5% DMSO. An overnight culture was diluted to approximately 5 x10^5 CFU/mL in fresh M63 media. The test solutions were prepared by adding compound (KM-5- 35, or KM-5- 25) dissolved in DMSO to 5 mL of diluted cell suspension to yield a solution of the desired compound concentration and 1.5% DMSO, or by the addition of antibiotic dissolved in water and a small volume of DMSO to produce the desired

[3] = tested on: A. baumannii 5075; experiment: MIC, broth microdilution in M63 media
Description: as §1, §2, §3, §4, §5, §6

[4] = tested on: A. baumannii ATCC 17978; experiment: MIC, broth microdilution in M63 media
Description: as §1, §2, §3, §4, §5, §6

[5] = tested on: P. aeruginosa PAO1 biofilm; experiment: Pellicle biofilm assay, % survival of biofilm cells; settings: 24 h
Description: We studied the susceptibility of mature biofilms to treatment with analogues of 4-aminoisoindoline-1,3-dione using biofilms cultured at the […] interface (pellicles) using methodology reported previously. To determine the susceptibility of pellicle biofilms to inhibitors of the Pa Bfr–Bfd complex, we cultured 27 h old biofilms in PI media supplemented with 20 μM Fe, as presented in Experimental Methods. The mature biofilms were transferred onto glass coverslips by touching the pellicle with the surface of the coverslips. The coverslip-adhered biofilms were then exposed to treatment solution consisting of AB media supplemented with 20 μM Fe, 1.5% DMSO, 0.025% HPMC, and 4-aminoisoindoline-1,3-dione derivative or commercial antibiotic for 24 h. The biofilms were then harvested and washed, and the cells were dispersed into sterile PBS by vortexing in the presence of zirconia beads prior to plating and enumerating viable cells (CFU/mL) to calculate % cell survival.
Biofilm Assays. Pellicle biofilms formed by EYF P-expressing P. aeruginosa PAO1 wer e carried ou t as repo rted previously,13 with some modifications. Starter cultures were diluted to OD600 = 0.001 in 4 mL PI media supplement ed with 20 µM Fe , trans ferred to petri dishes (35 x 10 mm) and incubated statically for 27 h at 30 °C.
The pellicles were transferred onto circular microscope glass coverslips (12 mm diameter) by gently allowing the surface of a coverslip to contact the pellicle. Th e biofilm- attached coverslip was washed (3 x) by floating it on top of PBS with the biofilm exposed to the liquid and then placed on top of 1.5 mL AB challenge media in a well of a 12-well microplate, with the biofilm exposed to the media at 30 °C for 24 h. AB challenge media is AB minimal media supplemented with 1.5% DMSO, 0.025% HPMC, 20 μ M Fe, and 4-aminoisoindoline-1,3- dione […]
The 4-aminoisoindoline-1,3- dione derivative solutions were prep ared from powder as 10 mM st ock solutions in DMSO and then diluted in AB challenge media to the appropriate concentrations. Following the 24 h challenge, planktonic and loosely attached cells were washed 3 times by floating the coverslip-attached biofilms with the biofilm facing down into a petri d ish (60 x 15 mm) containing 15 mL PBS, and incubating for 5 min. The biofilm was removed from the coversli p and the cells releas ed f rom the extra cel lular matrix by placing th e cov erslip-attach ed biofi lm in a 50 mL conical tub e containing a 2-mL sup ension of zirconia beads (0.1 mm diam eter, BiosSpec Produ cts), 10 mL PBS, 1 mM MgSO4, 20 µg/mL alginate lyase and 40 µg/mL DNAse. The mixture was incubated for three min at room temperature, and then vigorously vortexed for four min. Following sedimentation of the zirconia beads, a 100 μ L aliquot was utilized for serial dilution in PBS and plating on PIA plates for viable cell enumeration (CFU/mL). […]

[6] = biofilm challenged with 50 µM compound
[7] = Acinetobacter baumannii, ATCC19606, 20 h
[8] = Acinetobacter baumannii, 5075, 20 h
[9] = Acinetobacter baumannii, ATCC17978, 20 h
[10] = biofilm challenged with 20 µM compound

Cc1cc(Cl)cc(CNc2cccc3c2C(=O)NC3=O)c1O [SB-16-156] was tested, and the IC50 ([1]; planktonic cells) was 21 ± 5 µM, the MIC ([2]; 20 h) was greater than 40 µM and the MIC ([3]; 20 h) was greater than 40 µM. The MIC ([4]; 20 h) was greater than 40 µM and the “% Survival Biofilm, P. aeruginosa PAO1” value ([5]; biofilm challenged with 30 µM compound) was 44 ± 18%.

Work on O=C1NC(=O)c2c(NCc3cc(Cl)c(O)cc3O)cccc21 [SB-16-160] yielded an IC50 ([1]; planktonic cells) of 45 ± 6 µM, an MIC ([2]; 20 h) greater than 80 µM and an MIC ([3]; 20 h) greater than 80 µM. The MIC ([4]; 20 h) was greater than 80 µM and the “% Survival Biofilm, P. aeruginosa PAO1” value [5, 6] was “Not active”.

In the case of O=C1NC(=O)c2c(NCc3cc(Cl)cc(O)c3O)cccc21 [SB-16-168], the IC50 ([1]; Pseudomonas aeruginosa, PAO1, planktonic cells) is reported as 15 ± 7 µM, the MIC [2, 7] is reported as greater than 40 µM and the MIC [3, 8] is reported as 40 µM (≈ 12.7 µg/mL). For the same compound, the MIC [4, 9] was greater than 40 µM and the “% Survival Biofilm, P. aeruginosa PAO1” value [5, 6] was “Not active”.

Cc1cc(CNc2cccc3c2C(=O)NC3=O)c(O)cc1Br [SB-16-183] showed an IC50 ([1]; planktonic cells) of 13 ± 1 µM, an MIC ([2]; 20 h) greater than 20 µM and an MIC ([3]; 20 h) of 20 µM (≈ 7.22 µg/mL). For the same compound, the MIC ([4]; 20 h) was 20 µM (≈ 7.22 µg/mL) and the “% Survival Biofilm, P. aeruginosa PAO1” value [5, 10] was 43 ± 3%.

Work on O=C1NC(=O)c2c(NCc3cc(Br)cc(O)c3O)ccc(Br)c21 [SB-16-250] yielded an IC50 ([1]; planktonic cells) of 5 ± 2 µM, an MIC ([2]; 20 h) greater than 20 µM and an MIC ([3]; 20 h) greater than 20 µM. For the same compound, the MIC ([4]; 20 h) was greater than 20 µM and the “% Survival Biofilm, P. aeruginosa PAO1” value [5, 10] was “Not active”.

For O=C1NC(=O)c2c(NCc3ccc4c(c3)COC4)cccc21 [SB-17-80], the “IC50, P. aeruginosa PAO1” value ([1]; planktonic cells) was “Not active”, the “MIC, A. baumannii 19606” value ([2]; 20 h) was “Not active” and the “MIC, A. baumannii 5075” value ([3]; 20 h) was “Not active”. The “MIC, A. baumannii 17978” value ([4]; 20 h) was “Not active” and the “% Survival Biofilm, P. aeruginosa PAO1” value [5, 10] was “Not active”.

For O=C1NC(=O)c2c(NCc3cccc4c3CCN4)cccc21 [SB-17-140], the “IC50, P. aeruginosa PAO1” value ([1]; planktonic cells) was “Not active”, the MIC [2, 7] was greater than 100 µM and the MIC [3, 8] was greater than 100 µM. The MIC [4, 9] was greater than 100 µM and the “% Survival Biofilm, P. aeruginosa PAO1” value [5, 6] was “Not active”.
